Measured values taken from patent US20160101148A1, “TREATMENT AND PREVENTION OF BACTERIAL SKIN INFECTIONS USING ORITAVANCIN” (priority 2013, published 2016).

What was measured:
[1] = SOLO I and SOLO II combined, safety; type: in vivo, human
[2] = Predicted free peak and free trough levels in plasma; type: in vivo; details: non-protein bound drug, representative human dose: oritavancin 1200 mg, vancomycin 1000 mg, daptomycin 4 mg/kg, linezolid 500 mg
Protocol: ORI concentrations were chosen to approximate free peak (fCmax; defined as the peak concentration of non-protein bound drug) and free trough (fCmin; defined for ORI as the concentration of non-protein bound drug at 24 h) levels in plasma following administration of a 1200 mg dose (Belley et al., 2013 Table 10). ORI protein binding is estimated at approximately 85% in serum from nonclinical species and humans (Arhin et al., 2010). Doubling dilution concentrations of comparator agents were likewise chosen to approximate their fCmax and fCmin levels in plasma when administered at approved dosages for complicated skin and skin structure infections, using pharmacokinetic data and protein binding values from their respective package inserts (DAP [Cubicin®]; LZD [Zyvox®]; VAN [Vancocin®]; Table 3).

[3] = SOLO I Phase 3 trial, safety assessments (safety population); type: in vivo, human
Description: The study design was consistent with current guidelines from FDA (U.S. Food and Drug Administration. Guidance for Industry Acute Bacterial Skin and Skin Structure Infections: Developing Drugs for Treatment (DRAFT GUIDANCE). Available via Internet at the URL containing: fda.gov/downloads/Drugs/GuidanceComplianceRegulatoryInformation/Guidances/ucm071185.p df) and EMA (European Medicines Agency Committee for Medicinal Products for Human Use. Addendum to the note for guidance on evaluation of medicinal products indicated for treatment of bacterial infections (CHMP/EWP/558/95 REV 2) to address indication-specific clinical data (draft). 2012. Available via Internet at the URL containing: ema.europa.eu/docs/en_GB/document_library/Scientific_guideline/2012/07/WC500129443.pdf) and Foundation for National Institutes of Health guidance was considered for analyses (Talbot G H etl. Clin Infect Dis. 2012. 55(8):1114-1121). The protocol was approved by institutional review boards/ethics committees and all patients provided written informed consent. The study was conducted from January 2011 through October 2012 at 46 study centers in Mexico, Spain, Germany, Romania, Russia, Ukraine, Israel, India, and the United States. […] Aztreonam and metronidazole were permitted for gram-negative and anaerobic cover, respectively.
Safety assessments (Safety Population) included vital signs, electrocardiogram (ECG), clinical chemistry and hematology parameters, reporting of adverse events (AEs) and serious adverse events (SAEs). Treatment-emergent adverse events (TEAEs) were defined as AEs with onset or worsening severity at or after the first dose of study drug through the Safety Follow-up Visit (Day 60+7 days).
For safety assessments, descriptive analyses were performed in the safety population for all safety parameters by treatment group.
The intent-to-treat (ITT) population included all patients randomized into the study. The modified intent-to-treat (mITT) was the primary population for all the efficacy analyses and included all randomized patients who received any study drug. The clinically evaluable (CE) population consisted of all mITT patients who met the inclusion/exclusion criteria, received the full-course of randomized study treatment (for a minimum of 7 days), and had investigator assessment for clinical cure at PTE. The CE population was used to confirm the efficacy analyses. The microbiologically ITT (MicroITT) population consisted of all mITT patients with baseline gram-positive pathogen(s) known to cause ABSSSI and it was used for the secondary efficacy analyses. The microbiologically evaluable (MicroE) population was used to confirm the secondary efficacy analyses and consisted of all patients who were in both the MicroITT and CE populations. The safety population was the primary population for all the safety analyses, and consisted of all patients who were dosed with study drug, irrespective of randomization. Treatment classification was based on the actual treatment received.

[4] = test system: S. aureus strains (14 mecC MRSA, 2 mecA MRSA, ATCC 29213 MSSA); experiment: In vitro time-kill assays at free peak and free trough concentrations; type: cell-based, Staphylococcus aureus
Protocol: Viable cell count was determined by serial dilution plating, including the use of 25 g/L charcoal suspension to limit antibiotic carryover. […] Time-kill assays were repeated at least twice independently; results presented are from a representative experiment.
Doubling dilution concentrations of comparator agents were likewise chosen to approximate their fCmax and fCmin levels in plasma when administered at approved dosages for complicated skin and skin structure infections, using pharmacokinetic data and protein binding values from their respective package inserts (DAP [Cubicin®]; LZD [Zyvox®]; VAN [Vancocin®]; Table 3).

Question: Which “Patients with adverse events leading to study drug discontinuation” value [1] does the source give for `CN[C@H](CC(C)C)C(=O)N[C@H]1C(=O)N[C@@H](CC(N)=O)C(=O)N[C@H]2C(=O)N[C@H]3C(=O)N[C@H](C(=O)N[C@H](C(=O)O)c4cc(O)cc(O)c4-c4cc3ccc4O)[C@H](O[C@H]3C[C@](C)(N)[C@@H](O)[C@H](C)O3)c3ccc(c(Cl)c3)Oc3cc2cc(c3O[C@@H]2O[C@H](CO)[C@@H](O)[C@H](O)[C@H]2O[C@H]2C[C@](C)(NCc3ccc(-c4ccc(Cl)cc4)cc3)[C@@H](O)[C@H](C)O2)Oc2ccc(cc2Cl)[C@H]1O` [Oritavancin, N^DISACC-(4-(4-chlorophenyl)benzyl)A82846B] here?
Answer: Its value is 3.7%.

Question: What about the “Treatment emergent adverse events considered by investigators as related to study drug” value ([1]; p=0.002) of the same compound?
Answer: The value was 22.2%.

Question: And the “Patients reported to experience at least one adverse event” value ([1]; safety population)?
Answer: Its value is 55.3%.

Question: And the “Doubling Dilution Concentration Representing Predicted fCmax” value [2]?
Answer: The value was 16 mg/L.

Question: And the “Cellulitis SAEs considered new events” value [3]?
Answer: Its value is 2.

Question: And the “Discontinuation of study drug due to cellulitis” value [3]?
Answer: The value was 2 patients.

Question: What about the “Frequency of SAEs” value [3] of the same compound?
Answer: Its value is 7.4%.

Question: What about the “Histamine-like reactions (Red Man syndrome)” value [3] of the same compound?
Answer: Its value is “No histamine-like reactions occurred”.

Question: And the “Proportion of patients experiencing a TEAE that led to discontinuation of the study drug” value [3]?
Answer: The value was 3.8%.

Question: What about the “Skin and subcutaneous tissue adverse events” value [3] of the same compound?
Answer: Its value is 11.6%.

Question: And the “Patients who died during the study” value ([3]; all determined unrelated to study drug)?
Answer: The value was “one”.

Question: What about the “Infusion site reaction AEs” value ([3]; post-hoc analysis) of the same compound?
Answer: Its value is 4.0%.

Question: And the “Pruritus AEs” value ([3]; post-hoc analysis)?
Answer: The value was 3.4%.

Question: And the Incidence of diarrhea ([3]; safety population)?
Answer: The Incidence of diarrhea was 4.9%.

Question: What about the Incidence of headache ([3]; safety population) of the same compound?
Answer: The Incidence of headache was 7.2%.

Question: And the Incidence of nausea ([3]; safety population)?
Answer: Its Incidence of nausea is 11.0%.

Question: What about the Incidence of vomiting ([3]; safety population) of the same compound?
Answer: Its Incidence of vomiting is 4.9%.

Question: And the “Overall safety and tolerability” value ([3]; single 1200 mg dose)?
Answer: The value was “safe and well-tolerated”.

Question: And the “Time to cidality (≧3 log decrease)” value ([4]; 57147 (mecC), oritavancin ƒCmax 16 mg/L)?
Answer: Its value is 5-10 min.

Question: What about the “Time to cidality (≧3 log decrease)” value ([4]; 57147 (mecC), oritavancin ƒCmin 2 mg/L) of the same compound?
Answer: Its value is 5-10 min.

Question: What about the “Time to cidality (≧3 log decrease)” value ([4]; 70611 (mecC), oritavancin ƒCmax 16 mg/L) of the same compound?
Answer: The value was “≦5 min”.

Question: What about the “Time to cidality (≧3 log decrease)” value ([4]; 70611 (mecC), oritavancin ƒCmin 2 mg/L) of the same compound?
Answer: The value was 5-10 min.

Question: What about the “Time to cidality (≧3 log decrease)” value ([4]; 73348 (mecC), oritavancin ƒCmax 16 mg/L) of the same compound?
Answer: The value was 5-10 min.

Question: And the “Time to cidality (≧3 log decrease)” value ([4]; 73348 (mecC), oritavancin ƒCmin 2 mg/L)?
Answer: Its value is 5-10 min.

Question: What about the “Time to cidality (≧3 log decrease)” value ([4]; 73415 (mecC), oritavancin ƒCmax 16 mg/L) of the same compound?
Answer: Its value is 5-10 min.

Question: And the “Time to cidality (≧3 log decrease)” value ([4]; 73415 (mecC), oritavancin ƒCmin 2 mg/L)?
Answer: Its value is 5-10 min.

Question: And the “Time to cidality (≧3 log decrease)” value ([4]; 73617 (mecC), oritavancin ƒCmax 16 mg/L)?
Answer: Its value is 5-10 min.

Question: What about the “Time to cidality (≧3 log decrease)” value ([4]; 73617 (mecC), oritavancin ƒCmin 2 mg/L) of the same compound?
Answer: Its value is 10-15 min.

Question: And the “Time to cidality (≧3 log decrease)” value ([4]; 73829 (mecC), oritavancin ƒCmax 16 mg/L)?
Answer: The value was “≦5 min”.

Question: What about the “Time to cidality (≧3 log decrease)” value ([4]; 73829 (mecC), oritavancin ƒCmin 2 mg/L) of the same compound?
Answer: The value was 5-10 min.

Question: What about the “Time to cidality (≧3 log decrease)” value ([4]; 75814 (mecC), oritavancin ƒCmax 16 mg/L) of the same compound?
Answer: Its value is “≦5 min”.

Question: What about the “Time to cidality (≧3 log decrease)” value ([4]; 75814 (mecC), oritavancin ƒCmin 2 mg/L) of the same compound?
Answer: Its value is 5-10 min.

Question: What about the “Time to cidality (≧3 log decrease)” value ([4]; 76918 (mecC), oritavancin ƒCmax 16 mg/L) of the same compound?
Answer: The value was 5-10 min.

Question: And the “Time to cidality (≧3 log decrease)” value ([4]; 76918 (mecC), oritavancin ƒCmin 2 mg/L)?
Answer: The value was 5-10 min.

Question: And the “Time to cidality (≧3 log decrease)” value ([4]; 77431 (mecC), oritavancin ƒCmax 16 mg/L)?
Answer: The value was “≦5 min”.

Question: And the “Time to cidality (≧3 log decrease)” value ([4]; 77431 (mecC), oritavancin ƒCmin 2 mg/L)?
Answer: Its value is 5-10 min.

Question: What about the “Time to cidality (≧3 log decrease)” value ([4]; 77601 (mecC), oritavancin ƒCmax 16 mg/L) of the same compound?
Answer: The value was “≦5 min”.

Question: And the “Time to cidality (≧3 log decrease)” value ([4]; 77601 (mecC), oritavancin ƒCmin 2 mg/L)?
Answer: The value was 5-10 min.

Question: What about the “Time to cidality (≧3 log decrease)” value ([4]; 77950 (mecC), oritavancin ƒCmax 16 mg/L) of the same compound?
Answer: The value was “≦5 min”.

Question: And the “Time to cidality (≧3 log decrease)” value ([4]; 77950 (mecC), oritavancin ƒCmin 2 mg/L)?
Answer: The value was 5-10 min.

Question: And the “Time to cidality (≧3 log decrease)” value ([4]; 77964 (mecC), oritavancin ƒCmax 16 mg/L)?
Answer: Its value is “≦5 min”.

Question: And the “Time to cidality (≧3 log decrease)” value ([4]; 77964 (mecC), oritavancin ƒCmin 2 mg/L)?
Answer: The value was 5-10 min.

Question: And the “Time to cidality (≧3 log decrease)” value ([4]; 78085 (mecC), oritavancin ƒCmax 16 mg/L)?
Answer: Its value is 5-10 min.

Question: And the “Time to cidality (≧3 log decrease)” value ([4]; 78085 (mecC), oritavancin ƒCmin 2 mg/L)?
Answer: Its value is 10-15 min.

Question: What about the “Time to cidality (≧3 log decrease)” value ([4]; 78651 (mecC), oritavancin ƒCmax 16 mg/L) of the same compound?
Answer: Its value is 5-10 min.

Question: What about the “Time to cidality (≧3 log decrease)” value ([4]; 78651 (mecC), oritavancin ƒCmin 2 mg/L) of the same compound?
Answer: The value was 10-15 min.

Question: And the “Time to cidality (≧3 log decrease)” value ([4]; ATCC 29213 (MSSA), oritavancin ƒCmax 16 mg/L)?
Answer: The value was 5-10 min.

Question: And the “Time to cidality (≧3 log decrease)” value ([4]; ATCC 29213 (MSSA), oritavancin ƒCmin 2 mg/L)?
Answer: The value was 10-15 min.

Question: And the “Time to cidality (≧3 log decrease)” value ([4]; ATCC 33591 (mecA), oritavancin ƒCmax 16 mg/L)?
Answer: Its value is 5-10 min.

Question: And the “Time to cidality (≧3 log decrease)” value ([4]; ATCC 33591 (mecA), oritavancin ƒCmin 2 mg/L)?
Answer: The value was 10-15 min.

Question: What about the “Time to cidality (≧3 log decrease)” value ([4]; ATCC 43300 (mecA), oritavancin ƒCmax 16 mg/L) of the same compound?
Answer: Its value is 5-10 min.

Question: And the “Time to cidality (≧3 log decrease)” value ([4]; ATCC 43300 (mecA), oritavancin ƒCmin 2 mg/L)?
Answer: The value was 5-10 min.
